Consider 4 compounds from ChEMBL document CHEMBL5724914, “Linking interpersonal differences in gut microbiota composition and drug biotransformation activity” (2024).

A short description of series [1]: The drug is tested on WLS-038 corresponding to human gut metagenome with ENA study accession number: PRJEB37062 and ENA sample accession number: ERS12561745 for biotransformation under anaerobic condition. The drug concentrations were measured over 9 timepoints collected between 0 and 24 hours of incubation by liquid-chromatography-coupled mass spectrometry (LC–MS). The following applies: 2 µM.

For series [2] the following is noted: human gut metagenome, 24 h, 2 µM.
Series [3] in a line: The drug is tested on Z-005 corresponding to metagenome with ENA study accession number: PRJEB37062 and ENA sample accession number: ERS12561805 for biotransformation under anaerobic condition. The drug concentrations were measured over 9 timepoints collected between 0 and 24 hours of incubation by liquid-chromatography-coupled mass spectrometry (LC–MS). Particulars: 2 µM.
For series [4] the following is noted: human gut metagenome, 24 h, 2 µM. The source holds these as a separate data set.
A short description of series [5]: The drug is tested on Z-025 corresponding to rabbit gut metagenome with ENA study accession number: PRJEB37062 and ENA sample accession number: ERS12561824 for biotransformation under anaerobic condition. The drug concentrations were measured over 9 timepoints collected between 0 and 24 hours of incubation by liquid-chromatography-coupled mass spectrometry (LC–MS). Particulars: 2 µM.

The nature of series [6]: The drug is tested on Z-001 corresponding to mouse gut metagenome with ENA study accession number: PRJEB37062 and ENA sample accession number: ERS12561801 for biotransformation under anaerobic condition. The drug concentrations were measured over 9 timepoints collected between 0 and 24 hours of incubation by liquid-chromatography-coupled mass spectrometry (LC–MS). Particulars: 2 µM.

Series [7] can be described thus: The drug is tested on Z-017 corresponding to mouse gut metagenome with ENA study accession number: PRJEB37062 and ENA sample accession number: ERS12561816 for biotransformation under anaerobic condition. The drug concentrations were measured over 9 timepoints collected between 0 and 24 hours of incubation by liquid-chromatography-coupled mass spectrometry (LC–MS). Particulars: 2 µM.

Series [8] in a line: The drug is tested on WLS-073 corresponding to human gut metagenome with ENA study accession number: PRJEB37062 and ENA sample accession number: ERS12561749 for biotransformation under anaerobic condition. The drug concentrations were measured over 9 timepoints collected between 0 and 24 hours of incubation by liquid-chromatography-coupled mass spectrometry (LC–MS). Particulars: 2 µM.

Series [9] can be described thus: The drug is tested on WLS-006 corresponding to human gut metagenome with ENA study accession number: PRJEB37062 and ENA sample accession number: ERS12561741 for biotransformation under anaerobic condition. The drug concentrations were measured over 9 timepoints collected between 0 and 24 hours of incubation by liquid-chromatography-coupled mass spectrometry (LC–MS). The following applies: 2 µM.

The conditions of series [10]: human gut metagenome, 24 h, 2 µM. This is another data set of the same source.
Series [11] is described as follows: The drug is tested on WLS-350 corresponding to human gut metagenome with ENA study accession number: PRJEB37062 and ENA sample accession number: ERS12561789 for biotransformation under anaerobic condition. The drug concentrations were measured over 9 timepoints collected between 0 and 24 hours of incubation by liquid-chromatography-coupled mass spectrometry (LC–MS). Particulars: 2 µM.

The conditions of series [12]: human gut metagenome, 24 h, 2 µM. The source holds these as a separate data set.
For series [13] the following is noted: human gut metagenome, 24 h, 2 µM. This is another data set of the same source.
A short description of series [14]: The drug is tested on WLS-240 corresponding to human gut metagenome with ENA study accession number: PRJEB37062 and ENA sample accession number: ERS12561773 for biotransformation under anaerobic condition. The drug concentrations were measured over 9 timepoints collected between 0 and 24 hours of incubation by liquid-chromatography-coupled mass spectrometry (LC–MS). Particulars: 2 µM.

The conditions of series [15]: human gut metagenome, 24 h, 2 µM. This is another data set of the same source.
The nature of series [16]: The drug is tested on WLS-098 corresponding to human gut metagenome with ENA study accession number: PRJEB37062 and ENA sample accession number: ERS12561754 for biotransformation under anaerobic condition. The drug concentrations were measured over 9 timepoints collected between 0 and 24 hours of incubation by liquid-chromatography-coupled mass spectrometry (LC–MS). Particulars: 2 µM.

The conditions of series [17]: human gut metagenome, 24 h, 2 µM. This is another data set of the same source.
For series [18] the following is noted: human gut metagenome, 24 h, 2 µM. This is another data set of the same source.
A short description of series [19]: The drug is tested on Z-030 corresponding to mouse gut metagenome with ENA study accession number: PRJEB37062 and ENA sample accession number: ERS12561829 for biotransformation under anaerobic condition. The drug concentrations were measured over 9 timepoints collected between 0 and 24 hours of incubation by liquid-chromatography-coupled mass spectrometry (LC–MS). The following applies: 2 µM.

Series [20] can be described thus: The drug is tested on Z-022 corresponding to mouse gut metagenome with ENA study accession number: PRJEB37062 and ENA sample accession number: ERS12561821 for biotransformation under anaerobic condition. The drug concentrations were measured over 9 timepoints collected between 0 and 24 hours of incubation by liquid-chromatography-coupled mass spectrometry (LC–MS). The following applies: 2 µM.

The structures appear in SMILES notation.
Note: call rule not given here.

As to `CC(=O)OCC(=O)[C@@]1(OC(C)=O)[C@@H](C)C[C@H]2[C@@H]3C[C@H](F)C4=CC(=O)C=C[C@]4(C)[C@@]3(F)[C@@H](O)C[C@@]21C` [DIFLORASONE DIACETATE], the “Bacterial Biotransformation” value in [1] is “Compound metabolized”; in [2], “Compound NOT metabolized”; in series [3], “Compound metabolized”; in series [4], “Compound metabolized”; in [5] it was “Compound NOT metabolized”; in [6] it was “Compound metabolized”. Besides, the “Bacterial Biotransformation” value in [7], in series [8], in [9], in series [10], in [11] and in series [12] was “Compound metabolized” each time. Also, the “Bacterial Biotransformation” value in series [13], in series [14], in series [15], in series [16], in series [17] and in [18] was “Compound metabolized” each time. Besides, the “Bacterial Biotransformation” value in [19] is “Compound metabolized”; in series [20], “Compound NOT metabolized”.
As to `CCN1CCCC1CNC(=O)c1cc(S(=O)(=O)CC)c(N)cc1OC` (stereo not given) [AMISULPRIDE], the “Bacterial Biotransformation” value in series [1] was “Compound NOT metabolized”; in [2], “Compound NOT metabolized”; in [3], “Compound NOT metabolized”; in series [4], “Compound metabolized”; in series [5], “Compound NOT metabolized”; in [6] it was “Compound NOT metabolized”. Besides, the “Bacterial Biotransformation” value is given as “Compound NOT metabolized” in [7]; “Compound NOT metabolized” in series [8]; “Compound NOT metabolized” in series [9]; “Compound NOT metabolized” in [10]; “Compound NOT metabolized” in series [11]; “Compound metabolized” in series [12]. Besides, the “Bacterial Biotransformation” value in [13] is reported as “Compound NOT metabolized”; in series [14], “Compound metabolized”; in [15] it was “Compound metabolized”; in series [16], “Compound metabolized”; in series [17] it was “Compound NOT metabolized”; in series [18], “Compound NOT metabolized”. Besides, the “Bacterial Biotransformation” value in series [19] and in series [20] was “Compound NOT metabolized” each time.
For the compound `CN1[C@@H]2CC[C@H]1C[C@@H](OC(=O)c1c[nH]c3ccccc13)C2` [TROPISETRON], the “Bacterial Biotransformation” value in series [1], in series [2], in series [3], in series [4], in series [5] and in [6] was “Compound NOT metabolized” each time. Also, the “Bacterial Biotransformation” value in series [7] is on record as “Compound NOT metabolized”; in series [8], “Compound NOT metabolized”; in series [9], “Compound NOT metabolized”; in series [10], “Compound NOT metabolized”; in [11] it was “Compound NOT metabolized”; in [12], “Compound metabolized”. Further, the “Bacterial Biotransformation” value in series [13], in [14], in series [15], in series [16], in series [17] and in [18] was “Compound NOT metabolized” each time. Besides, the “Bacterial Biotransformation” value in series [19] and in [20] was “Compound NOT metabolized” throughout.
Consider `CCOC(=O)[C@H](CCc1ccccc1)N[C@@H](C)C(=O)N1Cc2ccccc2C[C@H]1C(=O)O`, for which the “Bacterial Biotransformation” value in [1] is given as “Compound metabolized”; in series [2], “Compound NOT metabolized”; in [3], “Compound NOT metabolized”; in series [4], “Compound metabolized”; in series [5], “Compound NOT metabolized”; in series [6], “Compound NOT metabolized”. Moreover, the “Bacterial Biotransformation” value is “Compound NOT metabolized” in series [7]; “Compound metabolized” in series [8]; “Compound metabolized” in [9]; “Compound NOT metabolized” in [10]; “Compound NOT metabolized” in series [11]; “Compound metabolized” in [12]. For the same compound, the “Bacterial Biotransformation” value in series [13], in series [14], in [15], in series [16], in series [17] and in series [18] was “Compound metabolized” throughout. For the same compound, the “Bacterial Biotransformation” value in series [19] and in series [20] was “Compound NOT metabolized” in each case.
